Here are results for 7 compounds from patent US12606544B2, “JAK1 selective kinase inhibitor” (DIZAL (JIANGSU) PHARMACEUTICAL CO., LTD., priority 2019, dated 2026).

Molecules are shown by their SMILES. Some results are limits rather than exact numbers.

The IC50 is the midpoint of a concentration-inhibition curve. Broadly, the microsomal CLint is a measure of how fast metabolising enzymes remove a compound, apart from limits set by blood flow. Lower therefore signals slow turnover.

One series has as its target T1, JAK2 (Homo sapiens, UniProt O60674).
T1 construct: purchased Carna Biosciences
Briefly: Lance Ultra Kinase Assay, recombinant JAK2. The settings on record: 5 mM ATP. It is filed as biochemical. In short, it runs like this: (§1)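 Each recombinant kinase preincubated with or without compound 15 min at room temperature, then reaction started with 5 mM ATP and substrate peptide for 60 min. Stopped with EDTA-containing detection mix; TR-FRET read at ex 320 nm, 665/615 nm emission ratio taken as kinase activity.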

The nature of series [1]: Metabolic stability in human liver microsome. In kind it is in vitro ADME. The settings on record: human, pooled human liver microsomes, pH 7.4, 1 μM compound, 1 mg/mL microsomes, NADPH. The protocol:
(§2) Rat hepatocytes in male gender and human liver microsome were obtained from commercial vendors (e.g., BioreclamationIVT) and stored at −150° C. prior to use.
For metabolic stability assay with human liver microsome, 1 μM of each test compound was incubated with 1 mg/mL of microsomes (Pooled HLM with 20 mg/ml protein cone) at 37° C. in 250 μL of buffer (100 mM phosphate buffer, pH-7.4) containing 1 mM NADPH solution. […] was quenched with 5 volumes chilled acetonitrile at different time points 0, 0.5, 5, 10, 15, 20 and 30 min in a fresh 96 well plate. The quench plate was centrifuged at 4000 rpm for 15 min. 40 μL of supernatant was diluted to 200 μL with pure water and analyzed using LC-MS/MS. […]
(Microsomes from liver hold many membrane-bound enzymes, among them those of drug oxidation.)

A short description of series [2]: Metabolic stability in rat hepatocytes. It is filed as in vitro ADME. The settings on record: 1 μM compound, male rat hepatocytes. The protocol:
as §2
For metabolic stability assay with rat heptatocytes, vials of cryopreserved hepatocytes or microsome were removed from storage, ensured that vials remain at cryogenic temperatures. 1 μM of each test compound (in Acetonitrile; 0.01% DMSO) was incubated with 250 μL of hepatocyte cells (1×10^6 cells/ml) in a 96 deep well plate. […] 40 μL of supernatant was diluted to 200 μL with pure water and analyzed using LC-MS/MS.
In vitro hepatocyte clearance was estimated based on determination of elimination half-life (T1/2) of compounds disappearance from their initial concentrations. Peak area ratios of each compound (test or control) to IS was calculated. Ln (% Control) versus Incubation Time (min) curve was plotted, and the slope of a linear fitting line was calculated. Drug elimination rate constant k (min−1), T1/2 (min), and in vitro intrinsic clearance CLint (μL/min/E6) was calculated according to the following equations: k=−slope T1/2=0.693/k CLint=k/Chep Where Chep (cells×μL^−1) is the cell concentration in the incubation system.

The next series deals with T2, TYK2 (Homo sapiens, UniProt P29597).
T2 construct: purchased Carna Biosciences
T2 sequence (P29597 whole entry): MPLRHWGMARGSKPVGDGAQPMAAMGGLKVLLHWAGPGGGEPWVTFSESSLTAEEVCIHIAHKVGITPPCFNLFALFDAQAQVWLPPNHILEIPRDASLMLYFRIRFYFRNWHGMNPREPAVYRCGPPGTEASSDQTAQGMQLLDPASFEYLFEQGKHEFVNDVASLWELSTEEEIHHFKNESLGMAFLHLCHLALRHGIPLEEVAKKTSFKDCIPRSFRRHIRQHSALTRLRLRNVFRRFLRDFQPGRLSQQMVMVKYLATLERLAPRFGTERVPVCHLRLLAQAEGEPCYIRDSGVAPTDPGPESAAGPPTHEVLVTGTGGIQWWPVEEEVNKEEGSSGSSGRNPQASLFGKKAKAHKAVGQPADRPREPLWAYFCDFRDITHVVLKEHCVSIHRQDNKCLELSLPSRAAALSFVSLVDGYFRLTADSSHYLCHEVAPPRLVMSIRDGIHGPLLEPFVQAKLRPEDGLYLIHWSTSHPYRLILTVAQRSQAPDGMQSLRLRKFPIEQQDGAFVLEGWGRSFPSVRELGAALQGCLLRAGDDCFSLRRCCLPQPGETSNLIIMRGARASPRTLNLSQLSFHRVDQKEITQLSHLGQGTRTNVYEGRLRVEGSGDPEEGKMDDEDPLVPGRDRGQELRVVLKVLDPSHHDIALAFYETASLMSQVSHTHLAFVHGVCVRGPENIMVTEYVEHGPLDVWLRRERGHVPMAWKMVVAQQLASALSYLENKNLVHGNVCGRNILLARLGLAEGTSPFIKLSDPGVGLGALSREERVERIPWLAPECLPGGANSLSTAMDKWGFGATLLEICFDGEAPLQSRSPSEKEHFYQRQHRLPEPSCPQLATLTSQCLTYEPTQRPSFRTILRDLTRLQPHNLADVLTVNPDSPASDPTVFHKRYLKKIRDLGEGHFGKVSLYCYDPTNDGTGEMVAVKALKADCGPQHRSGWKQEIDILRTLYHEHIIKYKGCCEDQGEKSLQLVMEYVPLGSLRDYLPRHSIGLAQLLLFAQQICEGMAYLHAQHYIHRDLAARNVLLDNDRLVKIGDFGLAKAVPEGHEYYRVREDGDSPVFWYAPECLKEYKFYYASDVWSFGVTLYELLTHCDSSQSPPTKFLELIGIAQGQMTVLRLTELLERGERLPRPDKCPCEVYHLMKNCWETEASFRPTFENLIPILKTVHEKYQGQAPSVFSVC
Nature of the series: Lance Ultra Kinase Assay, recombinant TYK2. It is filed as biochemical. As to conditions: 5 mM ATP. In short, it runs like this: as §1

The target in the next series is T3, JAK1 (Homo sapiens, UniProt P23458).
T3 construct: purchased Carna Biosciences
T3 sequence (P23458 whole entry): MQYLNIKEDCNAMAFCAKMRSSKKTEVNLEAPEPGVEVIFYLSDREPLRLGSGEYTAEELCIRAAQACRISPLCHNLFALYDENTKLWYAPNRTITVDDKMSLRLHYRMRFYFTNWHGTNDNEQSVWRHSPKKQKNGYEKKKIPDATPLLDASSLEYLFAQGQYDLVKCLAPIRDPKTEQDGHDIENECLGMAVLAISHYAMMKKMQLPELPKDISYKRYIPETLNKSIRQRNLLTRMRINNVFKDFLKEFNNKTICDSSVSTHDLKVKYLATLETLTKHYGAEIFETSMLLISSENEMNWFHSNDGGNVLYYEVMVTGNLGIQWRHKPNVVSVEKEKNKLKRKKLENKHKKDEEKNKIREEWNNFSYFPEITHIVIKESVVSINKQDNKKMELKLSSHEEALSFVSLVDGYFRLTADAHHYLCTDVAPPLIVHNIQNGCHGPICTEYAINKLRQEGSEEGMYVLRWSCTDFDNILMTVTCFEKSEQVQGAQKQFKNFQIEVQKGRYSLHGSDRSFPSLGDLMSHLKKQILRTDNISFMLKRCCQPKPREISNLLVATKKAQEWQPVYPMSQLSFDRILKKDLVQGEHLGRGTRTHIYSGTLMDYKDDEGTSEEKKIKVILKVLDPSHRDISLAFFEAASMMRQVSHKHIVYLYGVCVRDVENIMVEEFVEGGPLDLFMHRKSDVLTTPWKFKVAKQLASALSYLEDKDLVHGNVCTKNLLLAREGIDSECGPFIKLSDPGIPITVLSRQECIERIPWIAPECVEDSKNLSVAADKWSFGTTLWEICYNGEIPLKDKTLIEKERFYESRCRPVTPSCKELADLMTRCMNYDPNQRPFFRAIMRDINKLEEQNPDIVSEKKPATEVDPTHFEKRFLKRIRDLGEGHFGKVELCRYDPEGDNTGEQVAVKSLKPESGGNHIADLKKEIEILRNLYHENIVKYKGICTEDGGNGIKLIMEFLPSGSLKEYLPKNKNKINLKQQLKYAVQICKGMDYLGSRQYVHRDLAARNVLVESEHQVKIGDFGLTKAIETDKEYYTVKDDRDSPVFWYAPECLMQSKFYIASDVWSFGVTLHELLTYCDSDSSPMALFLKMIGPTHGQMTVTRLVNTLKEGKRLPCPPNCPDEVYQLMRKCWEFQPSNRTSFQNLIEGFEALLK
Briefly: Lance Ultra Kinase Assay, recombinant JAK1. It is filed as biochemical. As to conditions: 5 mM ATP. Summed up: as §1

In the next series the target is T4, JAK3 (Homo sapiens, UniProt P52333).
T4 construct: purchased Carna Biosciences
T4 sequence (P52333 1-1124): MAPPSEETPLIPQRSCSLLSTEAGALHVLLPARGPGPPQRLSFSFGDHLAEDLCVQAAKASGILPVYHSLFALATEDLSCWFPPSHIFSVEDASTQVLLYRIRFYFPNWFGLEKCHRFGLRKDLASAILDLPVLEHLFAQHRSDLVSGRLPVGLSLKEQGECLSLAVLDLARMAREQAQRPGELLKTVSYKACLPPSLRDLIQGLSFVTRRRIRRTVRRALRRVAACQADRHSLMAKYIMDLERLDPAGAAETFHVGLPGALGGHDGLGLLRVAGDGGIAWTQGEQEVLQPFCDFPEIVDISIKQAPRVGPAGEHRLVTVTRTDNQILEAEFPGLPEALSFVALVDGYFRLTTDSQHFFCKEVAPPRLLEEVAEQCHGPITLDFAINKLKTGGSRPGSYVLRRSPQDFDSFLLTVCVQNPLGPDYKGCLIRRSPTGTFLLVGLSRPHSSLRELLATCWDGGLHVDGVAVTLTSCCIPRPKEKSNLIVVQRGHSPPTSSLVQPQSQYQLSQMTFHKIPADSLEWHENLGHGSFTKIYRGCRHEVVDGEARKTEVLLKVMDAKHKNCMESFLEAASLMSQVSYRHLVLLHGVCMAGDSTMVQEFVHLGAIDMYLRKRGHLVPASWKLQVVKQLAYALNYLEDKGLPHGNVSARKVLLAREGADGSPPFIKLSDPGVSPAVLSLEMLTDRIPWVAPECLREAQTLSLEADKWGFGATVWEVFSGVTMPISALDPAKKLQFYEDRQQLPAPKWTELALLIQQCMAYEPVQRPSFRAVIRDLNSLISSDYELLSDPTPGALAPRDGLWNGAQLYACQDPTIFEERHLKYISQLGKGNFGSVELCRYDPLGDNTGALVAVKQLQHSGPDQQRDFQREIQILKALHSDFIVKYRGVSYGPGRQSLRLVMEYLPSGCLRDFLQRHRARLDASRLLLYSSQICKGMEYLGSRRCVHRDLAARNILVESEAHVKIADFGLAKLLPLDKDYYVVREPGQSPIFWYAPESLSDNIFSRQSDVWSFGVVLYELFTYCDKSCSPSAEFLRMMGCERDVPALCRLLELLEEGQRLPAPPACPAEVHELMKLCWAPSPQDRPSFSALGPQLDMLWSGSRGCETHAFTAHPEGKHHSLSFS
Nature of the series: Lance Ultra Kinase Assay, recombinant JAK3. It is filed as biochemical. The settings on record: 5 mM ATP. Summed up:
as §1

The subject of a further series is phosphorylation of STAT6. Briefly: Cellular p-STAT6 assay, IL-13 stimulated THP-1 cells, flow cytometry. It is filed as cell-based. The settings on record: Homo sapiens, THP-1, THP-1 cells, IL-13 10 ng/ml; read-out: pSTAT6 IC50. Summed up: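 THP-1 cells (2×10^5/well, RPMI1640 + 10% FBS) preincubated 60 min at room temperature with compound (1 μM to 0.3 nM), then stimulated 30 min with IL-13 at 10 ng/ml. Fixed, methanol-permeabilized cells stained with PE anti-pSTAT6 and read by flow cytometry; IC50 from dose-response curves.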
On the technique in general: Flow cytometry measures light scatter and fluorescence of single cells or particles in a stream.

T1 sequence (O60674 whole entry): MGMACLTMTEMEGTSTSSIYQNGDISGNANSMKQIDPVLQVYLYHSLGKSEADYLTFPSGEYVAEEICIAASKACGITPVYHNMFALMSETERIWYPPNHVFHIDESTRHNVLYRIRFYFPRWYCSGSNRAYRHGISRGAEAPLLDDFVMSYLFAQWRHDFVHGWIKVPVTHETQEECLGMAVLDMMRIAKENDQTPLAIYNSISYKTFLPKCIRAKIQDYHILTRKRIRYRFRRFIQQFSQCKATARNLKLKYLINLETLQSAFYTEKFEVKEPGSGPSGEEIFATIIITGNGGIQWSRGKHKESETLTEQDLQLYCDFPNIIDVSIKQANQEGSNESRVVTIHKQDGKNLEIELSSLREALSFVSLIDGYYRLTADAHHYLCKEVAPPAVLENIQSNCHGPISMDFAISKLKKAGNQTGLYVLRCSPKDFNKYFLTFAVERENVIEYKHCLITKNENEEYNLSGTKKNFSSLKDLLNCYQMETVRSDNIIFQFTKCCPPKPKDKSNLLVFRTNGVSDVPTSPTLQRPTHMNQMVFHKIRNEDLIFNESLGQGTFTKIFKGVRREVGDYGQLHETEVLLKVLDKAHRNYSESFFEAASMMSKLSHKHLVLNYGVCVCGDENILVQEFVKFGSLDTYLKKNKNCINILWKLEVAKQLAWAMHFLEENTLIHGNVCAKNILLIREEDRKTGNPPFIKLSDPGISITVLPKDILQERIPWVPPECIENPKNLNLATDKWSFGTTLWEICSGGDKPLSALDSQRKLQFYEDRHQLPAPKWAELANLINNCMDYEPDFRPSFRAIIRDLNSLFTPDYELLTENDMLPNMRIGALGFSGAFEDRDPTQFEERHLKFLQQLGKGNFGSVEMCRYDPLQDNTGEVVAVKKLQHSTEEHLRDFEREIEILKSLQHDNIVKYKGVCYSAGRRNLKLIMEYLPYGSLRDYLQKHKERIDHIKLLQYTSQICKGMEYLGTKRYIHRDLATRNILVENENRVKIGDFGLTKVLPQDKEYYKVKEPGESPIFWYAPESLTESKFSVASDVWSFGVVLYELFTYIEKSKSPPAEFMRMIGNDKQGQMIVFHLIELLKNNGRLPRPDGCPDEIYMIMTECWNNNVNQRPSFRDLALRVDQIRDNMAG

Regarding `COC[C@H](C(=O)Nc1cccc2c(-c3nc(Nc4cnn(-c5ccccc5CO)c4)ncc3F)c[nH]c12)N1CCN(C)CC1` [Example 53, (R)-N-(3-(5-fluoro-2-((1-(2-(hydroxymethyl)phenyl)-1H-pyrazol-4-yl)amino)pyrimidin-4-yl)-1H-indol-7-yl)-3-methoxy-2-(4-methylpiperazin-1-yl)propanamide], the IC50 on JAK2 was 0.18 µM; on TYK2, 1.66 µM; at JAK1, 0.00022 µM; at JAK3, over 10 µM; in the series on phosphorylation of STAT6, 0.015 µM. This compound showed a microsomal CLint at 1 μM in series [1] of 27.9 µL/min/mg. In addition, the “Rat Hepatocyte CLint” value in series [2] came out at 17.4 μL/min/10^6 cells.
For the compound `COC[C@H](C(=O)Nc1cccc2c(-c3nc(Nc4cnc(C(=O)OC)c(C)c4)ncc3F)c[nH]c12)N1CCN(C)CC1` [Example 57, methyl (R)-5-((5-fluoro-4-(7-(3-methoxy-2-(4-methylpiperazin-1-yl)propanamido)-1H-indol-3-yl)pyrimidin-2-yl)amino)-3-methylpicolinate], the IC50 on JAK2 was 0.044 µM; at TYK2, 0.922 µM; on JAK1 it was 0.00016 µM; on JAK3, over 10 µM; in the series with phosphorylation of STAT6, 0.016 µM. In series [1], this compound gave a microsomal CLint at 1 μM of over 300 µL/min/mg. For the same compound, in series [2], the “Rat Hepatocyte CLint” value came to 24.0 μL/min/10^6 cells.
As for `COC[C@H](C(=O)Nc1cccc2c(-c3nc(Nc4ccc(CO)cn4)ncc3F)c[nH]c12)N1CCN(C)CC1` [Example 59, (R)-N-(3-(5-fluoro-2-((5-(hydroxymethyl)pyridin-2-yl)amino)pyrimidin-4-yl)-1H-indol-7-yl)-3-methoxy-2-(4-methylpiperazin-1-yl)propanamide], the IC50 on JAK2 is 2.22 µM; on TYK2 it was over 10 µM; on JAK1, 0.131 µM; on JAK3 it was over 10 µM; in the series with phosphorylation of STAT6 it was 0.0174 µM. Moreover, the microsomal CLint at 1 μM in series [1] amounted to 10.7 µL/min/mg. For the same compound, the “Rat Hepatocyte CLint” value in series [2] is on record as over 300 μL/min/10^6 cells.
In the case of `COC[C@H](C(=O)Nc1cccc2c(-c3nc(Nc4ccc(CCO)nc4)ncc3F)c[nH]c12)N1CCN(C)CC1` [Example 60, (R)-N-(3-(5-fluoro-2-((6-(2-hydroxyethyl)pyridin-3-yl)amino)pyrimidin-4-yl)-1H-indol-7-yl)-3-methoxy-2-(4-methylpiperazin-1-yl)propanamide], the IC50 is 0.158 µM on JAK2; 1.34 µM at TYK2; 0.00025 µM at JAK1; over 10 µM on JAK3; 0.0176 µM with phosphorylation of STAT6. In addition, the microsomal CLint at 1 μM in series [1] is 7 µL/min/mg. Moreover, in series [2], the “Rat Hepatocyte CLint” value was found to be 4.6 μL/min/10^6 cells.
Regarding `COC[C@H](C(=O)Nc1cccc2c(-c3nc(Nc4ccc5c(c4)C(=O)OCC5)ncc3F)c[nH]c12)N1CCN(C)CC1` [Example 64, (R)-N-(3-(5-fluoro-2-((1-oxoisochroman-7-yl)amino)pyrimidin-4-yl)-1H-indol-7-yl)-3-methoxy-2-(4-methylpiperazin-1-yl)propanamide], the IC50 at JAK2 was 0.022 µM; at TYK2 it was 0.512 µM; at JAK1 it was 0.00014 µM; at JAK3 it was over 10 µM; in the series with phosphorylation of STAT6, 0.0184 µM. For the same compound, in series [1], the microsomal CLint at 1 μM came out at 21.9 µL/min/mg. For the same compound, the “Rat Hepatocyte CLint” value in series [2] turned out to be 4.0 μL/min/10^6 cells.
As to `COC[C@H](C(=O)Nc1cccc2c(-c3nc(Nc4cnc(CCO)c(OC)c4)ncc3F)c[nH]c12)N1CCN(C)CC1` [Example 66, (R)-N-(3-(5-fluoro-2-((6-(2-hydroxyethyl)-5-methoxypyridin-3-yl)amino)pyrimidin-4-yl)-1H-indol-7-yl)-3-methoxy-2-(4-methylpiperazin-1-yl)propanamide], the IC50 at JAK2 is 0.012 µM; at TYK2 it was 0.545 µM; at JAK1, 0.00035 µM; at JAK3, over 10 µM; in the series on phosphorylation of STAT6 it was 0.0203 µM. Moreover, the microsomal CLint at 1 μM in series [1] stood at 25 µL/min/mg. Also, the “Rat Hepatocyte CLint” value in series [2] was 12.7 μL/min/10^6 cells.
As to `COC[C@H](C(=O)Nc1cccc2c(-c3nc(Nc4cnn(-c5cccc(CO)c5)c4)ncc3F)c[nH]c12)N1CCN(C)CC1` [Example 67, (R)-N-(3-(5-fluoro-2-((1-(3-(hydroxymethyl)phenyl)-1H-pyrazol-4-yl)amino)pyrimidin-4-yl)-1H-indol-7-yl)-3-methoxy-2-(4-methylpiperazin-1-yl)propanamide], the IC50 at JAK2 is 0.035 µM; at TYK2 it was 0.609 µM; on JAK1, 0.00018 µM; on JAK3, 6.77 µM; in the series with phosphorylation of STAT6 it was 0.0206 µM. In series [1], this compound showed a microsomal CLint at 1 μM of 19.5 µL/min/mg. For the same compound, in series [2], the “Rat Hepatocyte CLint” value worked out at 153.6 μL/min/10^6 cells.
